Data: PubChem BioAssay (NCI)
“And” between values parts separate entries of the source, which are not always exact repeats. Equal values may be shown once.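 1) Cells in 96-well plates. 2) Compound, 48 h, 5 concentrations. 3) Linear interpolation between surrounding doses. 4) Unreached endpoint = highest concentration. GI50 is the concentration that inhibits growth by half. TGI marks complete inhibition of growth.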

What was measured:
Assay in all cases: growth of human tumour cells (NCI), 48 h
BT-549 breast = tested on: BT-549 breast
NCI-H23 lung = tested on: NCI-H23 lung
SF-295 CNS = tested on: SF-295 CNS
HOP-62 NSCLC = tested on: HOP-62 NSCLC
SN12C renal = tested on: SN12C renal
SF-539 CNS = tested on: SF-539 CNS
SK-MEL-2 melanoma = tested on: SK-MEL-2 melanoma
MCF7 breast = tested on: MCF7 breast
UACC-62 melanoma = tested on: UACC-62 melanoma
NCI-H522 lung = tested on: NCI-H522 lung

Row | Compound | GI50 (BT-549 breast) | TGI (BT-549 breast) | GI50 (NCI-H23 lung) | TGI (NCI-H23 lung) | GI50 (SF-295 CNS) | TGI (SF-295 CNS) | GI50 (HOP-62 NSCLC) | TGI (HOP-62 NSCLC) | GI50 (SN12C renal) | TGI (SN12C renal) | GI50 (SF-539 CNS) | TGI (SF-539 CNS) | GI50 (SK-MEL-2 melanoma) | TGI (SK-MEL-2 melanoma) | GI50 (MCF7 breast) | TGI (MCF7 breast) | GI50 (UACC-62 melanoma) | TGI (UACC-62 melanoma) | GI50 (NCI-H522 lung) | TGI (NCI-H522 lung)
1 | O=C1NC(=NCc2ccccc2)S/C1=C\c1ccc2ncccc2c1 | > 25 µM | > 25 µM | > 25 µM | > 25 µM | > 25 µM | > 25 µM | > 25 µM | > 25 µM | > 25 µM | > 25 µM | > 25 µM | > 25 µM | > 25 µM | > 25 µM | > 25 µM | > 25 µM | > 25 µM | > 25 µM | > 15.5 µM | > 25 µM
2 | Cc1cc2c(cc1C)[n+](=O)c(C(=O)c1ccccc1)c(C(F)F)n2[O-] | 14.2 µM | 65.3 µM | 26.3 µM | > 100 µM | 7.27 µM | 42.5 µM | 26.4 µM | > 100 µM | 25.7 µM | > 100 µM | 18.4 µM | 72.5 µM | 21.2 µM | 78.3 µM | 12.1 µM | 41.1 µM | 18.4 µM | 96.9 µM | 7.82 µM | 27.2 µM
3 | CC(=O)OCc1ccc2c(c1)C(O)NC(=O)O2 (centres undefined) | – | > 100 µM | – | > 100 µM | – | > 100 µM | – | > 100 µM | – | > 100 µM | – | > 100 µM | – | > 100 µM | – | > 100 µM | – | > 100 µM | – | > 100 µM
4 | CC(=O)OC1(C)N=NC2(CCCCC2)O1 (centres undefined) | – | > 100 µM | – | > 100 µM | – | > 100 µM | – | > 100 µM | – | > 100 µM | – | > 100 µM | – | > 100 µM | – | > 100 µM | – | > 100 µM | – | > 100 µM
5 | O=C1c2c(F)c(F)c(F)c(F)c2C(=O)N1c1ccc(F)cc1F | 11.9 µM | 28 µM | 3.82 µM | 9.82 µM | 13.7 µM | 46.4 µM | 15.2 µM | 31.4 µM | 2.95 µM | 10.1 µM | 2.78 µM | 7.27 µM | 34.4 µM | > 100 µM | 12.9 µM | > 55.9 µM | 4.11 µM | 14.3 µM | 6.58 µM | > 25 µM
6 | COc1cc(-c2nn(-c3cccc(NC(=O)c4ccccc4)c3)cc2-c2ccncc2)ccc1Cl | 0.98 µM | > 100 µM | 1.12 µM | > 100 µM | 0.315 µM | 1.44 µM | 2.49 µM | > 100 µM | 1.45 µM | > 100 µM | 0.413 µM | 2.65 µM | 0.326 µM | 2.1 µM | 0.344 µM | > 100 µM | 0.568 µM | > 100 µM | 0.238 µM | –
7 | O=C(Nc1cccc(C(F)(F)F)c1)Nc1cccc(C(F)(F)F)c1 | 2.29 µM | 6.44 µM | 0.349 µM | 1.97 µM | 0.323 µM | 1.57 µM | 1.4 µM | 3.64 µM | 0.923 µM | 5.24 µM | 2.13 µM | 5.23 µM | 1.84 µM | 4.73 µM | 0.852 µM | 10 µM | 0.702 µM | 2.66 µM | 1.2 µM | 4.32 µM
8 | O=[N+]([O-])c1cc([N+](=O)[O-])c(C(F)(F)F)cc1NN=C(c1ccc(O)cc1)c1ccc(O)cc1 | 5 µM | 42.8 µM | 4.23 µM | 31 µM | 1.57 µM | 3.81 µM | 3.51 µM | 35.8 µM | 3.3 µM | 13.4 µM | 2.01 µM | 4.45 µM | 2.56 µM | 5.99 µM | 2.63 µM | 7.73 µM | 2.07 µM | 4.6 µM | 3.82 µM | 39.7 µM
9 | c1ccc(Nc2ncc(-c3ccccc3)o2)cc1 | > 25 µM | > 25 µM | > 25 µM | > 25 µM | > 25 µM | > 25 µM | > 25 µM | > 25 µM | > 25 µM | > 25 µM | > 25 µM | > 25 µM | > 25 µM | > 25 µM | 12.4 µM | > 25 µM | > 25 µM | > 25 µM | > 25 µM | > 25 µM
10 | COc1ccc2ncnc(Nc3ccc(OCc4ccccc4)cc3)c2c1 | 7.91 µM | > 25 µM | 8.48 µM | > 25 µM | 5.15 µM | > 18.7 µM | 10.6 µM | > 25 µM | 9.14 µM | > 25 µM | 8.96 µM | > 25 µM | 9.97 µM | > 25 µM | 7.49 µM | > 25 µM | 6.12 µM | > 18.1 µM | 4.95 µM | > 17.1 µM
11 | O=C1OCC2=C1C(c1cccc(Br)c1)c1cc3c(cc1N2CCO)OCCO3 (centres undefined) | 0.136 µM | 6.35 µM | 0.0911 µM | > 44.5 µM | 0.0184 µM | 0.417 µM | 0.0891 µM | 18.7 µM | 0.188 µM | > 27.1 µM | 0.051 µM | 0.46 µM | 0.0426 µM | 1.29 µM | 0.103 µM | > 50 µM | 0.022 µM | > 23.7 µM | 0.0116 µM | 0.0478 µM
12 | OC(c1cc(C(F)(F)F)nc2c(C(F)(F)F)cccc12)C1CCCCN1 (centres undefined) | 3.24 µM | 8.67 µM | 2.85 µM | 11.3 µM | 2.04 µM | 5.09 µM | 1.84 µM | 5.13 µM | 1.78 µM | 3.71 µM | 2.72 µM | 6.34 µM | 2.31 µM | 4.16 µM | 1.85 µM | 3.49 µM | 1.89 µM | 4.47 µM | 1.65 µM | 3.2 µM
13 | C=CC(=O)Nc1cc(Nc2nccc(-c3cn(C)c4ccccc34)n2)c(OC)cc1N(C)CCN(C)C | 3.52 µM and 2.95 µM | 12.8 µM and > 10 µM | 4.76 µM and 3.39 µM | 17.9 µM and > 10 µM | 2.76 µM and 2.02 µM | 8.31 µM and 4.61 µM | 4.07 µM and 3.58 µM | 18.3 µM and > 10 µM | 2.2 µM and 1.2 µM | 8.58 µM and 4.36 µM | 1.7 µM and 1.63 µM | 3.29 µM and 3.16 µM | 2.08 µM and 1.94 µM | 4.04 µM and 3.87 µM | 1.5 µM and 1.48 µM | 3.47 µM and 3.6 µM | 1.85 µM and 1.71 µM | 3.61 µM and 3.4 µM | 0.169 µM and 0.0657 µM | 1.98 µM and 1.53 µM
14 | COC(=O)c1cc2oc(/C=C3/SC(=S)N(NC(C)=O)C3=O)cc2n1C | 6.13 µM | 22.7 µM | 16.6 µM | 50.1 µM | 18.2 µM | 65.5 µM | 21.7 µM | 47.3 µM | 21.9 µM | 60.5 µM | 12.9 µM | 29.1 µM | 23.9 µM | > 100 µM | 11.6 µM | > 100 µM | 14.7 µM | 35 µM | 16.4 µM | 55.4 µM
15 | COc1ccc(C(c2cc(OC)c(OC)c(OC)c2)n2cncn2)cc1O (centres undefined) | 0.618 µM | > 100 µM | 0.977 µM | > 100 µM | 0.325 µM | > 100 µM | 0.514 µM | > 100 µM | 0.853 µM | > 100 µM | 0.3 µM | 1.11 µM | 0.361 µM | > 100 µM | 0.347 µM | > 100 µM | 0.55 µM | > 100 µM | 0.395 µM | 2.37 µM
16 | COc1c2ccccc2c(OC)c2[nH]c(=O)ccc12 | 2.07 µM | 4.51 µM | 0.925 µM | 3.47 µM | 1.44 µM | 3.29 µM | 2.01 µM | 3.72 µM | 2.13 µM | > 21.2 µM | 4.19 µM | > 36.5 µM | 4.92 µM | > 75.8 µM | 4.37 µM | > 54.8 µM | 1.65 µM | 3.33 µM | 7.73 µM | > 100 µM
17 | Nc1nc2[nH]cc(CCc3ccc(C(=O)N[C@@H](CCC(=O)O)C(=O)O)cc3)c2c(=O)[nH]1 | > 71.7 µM | > 100 µM | – | > 100 µM | 0.606 µM | > 100 µM | 0.724 µM | > 100 µM | 0.737 µM | > 100 µM | 0.0774 µM | – | – | > 100 µM | 0.0246 µM | > 100 µM | – | > 100 µM | – | > 100 µM
18 | COC(=O)/C=C/c1cc(OC(C)=O)c2c(c1)[C@@H](C(=O)OC)[C@H](c1ccc(OC(C)=O)c(OC(C)=O)c1)O2 | 0.219 µM | 32.9 µM | 0.0912 µM | 29.7 µM | 0.285 µM | 11.4 µM | 0.0779 µM | 63.9 µM | 0.121 µM | 99.7 µM | 0.0344 µM | 0.305 µM | 0.268 µM | 70 µM | 0.0339 µM | > 70.7 µM | 0.359 µM | 26 µM | 0.0348 µM | 2.13 µM
19 | NC(=S)N/N=C1\c2cc(Cl)ccc2-c2c1cc(Cl)cc2[N+](=O)[O-] | 3.41 µM | 36.7 µM | 3.86 µM | > 100 µM | 3.57 µM | 73.7 µM | 7.12 µM | 74.7 µM | 4.58 µM | > 100 µM | 6.16 µM | 88.2 µM | 7.96 µM | 89.8 µM | 1.98 µM | 16.8 µM | 3.16 µM | > 100 µM | 4.11 µM | 48.6 µM
